This note sets out measurements from US7279161B2, “Factor IX/factor IXa activating antibodies and antibody derivatives” (Baxter Aktiengesellschaft, priority 1999, dated 2007).

“Also recorded” adds a separate entry of the source.

The target of one experiment is T1, human FIXa (Homo sapiens, UniProt P00740).
T1 construct: with (+) and without (−) addition of 50 ng human FIXaβ; purchased ERL (Enzyme Research Laboratories)
The experiment can be described thus: Chromogenic FVIII-like (FXa generation) assay with human FIXa added. It counts as biochemical. On the procedure: The chromogenic activity of these antibody preparations was measured in the following FXa generation kinetic assay: 10 μg of monoclonal antibody (in 25 μl) were transferred to microtiter plate wells and warmed to 37° C. Chromogenic substrate (S-2222), synthetic thrombin inhibitor (I-2581), factor IXa and FX were reconstituted in sterile water and FIXa/FX (both bovine) were mixed with phospholipids according to the supplier's protocol. Per reaction, 50 μl of the phospholipid/FIXa/FX solution were combined with 25 μl CaCl2 (25 mM) and 50 μl of the substrate/inhibitor cocktail. To start the reaction, 125 μl of the premix were added to the monoclonal antibody solution in the microtiter plates and incubated at 37° C. Absorbance at 405 nm and 490 nm of the samples was read at various times (5 min to 2 h) against a reagent blank ([…] TBS instead of monoclonal antibodies) in a Labsystems iEMS Reader MF™ microtiter plate reader using GENESIS™ software. In parallel, the same reactions were performed except that 50 ng human FIXa were added per reaction.
To analyze the FVIII-like (FIXa activating) activity of the peptides, an assay system based on a commercial available FVIII assay was developed (see examples 2 and 4). The basic principle is, that without a cofactor, FIXa will have very limited activity towards its natural substrate FX. […] The amount of FXa generated is monitored by cleavage of a chromogenic substrate. The principle of the revised chromogenic assay is described for two representative peptides: A1/3 and A1/5 (Table 2). Briefly, 25 μl aliquots of peptide stock solution (in imidazole buffer (IZ) 50 mM imidazole, 100 mM NaCl, pH 7.2) were transferred to microtiter plate wells and warmed to 37° C. Chromogenic FXa substrate (S-2222), synthetic thrombin inhibitor (I-2581), bovine FIXa and bovine FX were reconstituted in sterile water and FIXa/FX mixed with phospholipids according to the supplier's protocol. […] Per reaction, 50 μl of the phospholipid/FIXa/FX solution were combined with 25 μl CaCl2 (25 mM) and 50 μl of the substrate/inhibitor cocktail. To start the reaction, 125 μl of the premix were added to the peptide solution in the microtiter plate and incubated at 37° C. Absorbance at 405 nm and 490 nm of the samples was read at various times (5 min to 2 h) against a reagent blank in a Labsystems iEMS Reader MF™ microtiter plate reader using GENESIS™ software.

For a further experiment, the system named is FVIII deficient plasma. The experiment can be described thus: aPTT based one stage clotting assay in FVIII deficient plasma. The class given is biochemical, human. On the procedure: During normal hemostasis, FIX becomes initially activated either by the tissue factor (TF)/factor VIIa pathway or later on by activated factor XI (FXIa). Subsequent to its activation, FIXa associates on the platelet surface in a membrane bound complex with activated FVIII. […] Different amounts of antibody 193/AD3 or mouse IgG (as a control) were used in a standard aPTT based one stage clotting assay. Briefly, 100 μl of antibody-containing samples were incubated with 100 μl of FVIII deficient plasma (DP) and with 100 μl of DAPTTIN (PTT Reagent for determining activated Thromboplastin Time; IMMUNO AG) reagent, in a KC10A clotting analyzer. Where indicated, a total amount of 50 ng activated FIX was included in the reaction mixture. After a 4 minute incubation, the reaction was started by the addition of 100 μl CaCl2 (25 mM).
The peptides were also analyzed for their potential to reduce the clotting time in a FVIII deficient plasma. The aPTT based one stage clotting assay was essentially done as described (see example 6). Clotting times (time from starting the reaction to the “clot”-formation were compared either against FVIII, a buffer control (IZ) or a control peptide (scrambled version). The results of two typical clotting experiments done with two different aPTT reagents (DAPTTIN and Pathromtin SL) are shown in table 3A and table 3B.

T1 sequence (P00740 47-191 limits assumed): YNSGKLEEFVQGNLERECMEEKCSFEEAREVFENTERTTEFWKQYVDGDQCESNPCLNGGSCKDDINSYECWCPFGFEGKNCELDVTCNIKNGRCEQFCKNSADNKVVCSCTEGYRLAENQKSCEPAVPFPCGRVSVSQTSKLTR
T1 sequence (P00740 227-461 limits assumed): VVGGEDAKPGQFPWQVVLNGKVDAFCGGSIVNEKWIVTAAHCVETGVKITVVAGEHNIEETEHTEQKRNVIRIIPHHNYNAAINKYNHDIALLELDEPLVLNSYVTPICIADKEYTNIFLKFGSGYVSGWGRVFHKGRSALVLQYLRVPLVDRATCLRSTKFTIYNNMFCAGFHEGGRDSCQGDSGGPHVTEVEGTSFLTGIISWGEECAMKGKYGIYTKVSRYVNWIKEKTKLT

On to EEEEGGGYYVNWYFDEEE [A1/2], for which, on human FIXa (2.9 nM human FIXa), the “chromogenic FVIII-like activity (FXa generation)” value (“chromogenic FVIII-like activity” for short) is reported as “did not give any significant chromogenic activity”.

For the molecule EYGEGYGEVNEYDEFEWE [A1/4], the “chromogenic FVIII-like activity” value at human FIXa (2.9 nM human FIXa) is reported as “did not give any significant chromogenic activity”.

For FGVGYRGETRNFDW [B1/5], the “FIXa activating activity in chromogenic assay” value on human FIXa (data not shown) is listed as “no activity”.

Turning to VRYRNRYRWGYRGRFGDE [A1/5], the “chromogenic FVIII-like activity” value at human FIXa (2.9 nM human FIXa) was “inactive; also recorded: does not give rise to any FXa generation”. Further, the chromogenic activity entry at human FIXa (12 μM peptide, 2.3 nM human FIXa) is “no significant FXa generation”.

Regarding REGGGFTVNWYFDR [B1/4], on human FIXa (chromogenic FVIII assay, data not shown), the chromogenic activity entry is “some chromogenic activity”.

For RdRdRdGEYGVYWNGDFYRdRdRd [A1/3-Rd-srmb], the average clotting time in the experiment on FVIII deficient plasma (Table 4, 1.25 μM, 2.2 nM FIXa) worked out at 103 s; in the experiment on FVIII deficient plasma (Table 4, 1.25 μM, w/o FIXa), 107 s; with FVIII deficient plasma (Table 4, 2.5 μM, 2.2 nM FIXa), 105 s; with FVIII deficient plasma (Table 4, 2.5 μM, w/o FIXa) it was 112 s; in the experiment with FVIII deficient plasma (Table 4, 5 μM, 2.2 nM FIXa), 108 s; in the experiment on FVIII deficient plasma (Table 4, 5 μM, w/o FIXa), 113 s. Moreover, the average clotting time is 107 s in the experiment with FVIII deficient plasma (Table 4, 7.5 μM, 2.2 nM FIXa); 114 s in the experiment with FVIII deficient plasma (Table 4, 7.5 μM, w/o FIXa); 108 s with FVIII deficient plasma (Table 4, 10 μM, 2.2 nM FIXa); 116 s in the experiment on FVIII deficient plasma (Table 4, 10 μM, w/o FIXa); 108 s with FVIII deficient plasma (Table 4, 12.5 μM, 2.2 nM FIXa); 118 s in the experiment with FVIII deficient plasma (Table 4, 12.5 μM, w/o FIXa). Also, the average clotting time with FVIII deficient plasma (Table 4, 15 μM, 2.2 nM FIXa) was 113 s; with FVIII deficient plasma (Table 4, 15 μM, w/o FIXa) it was 122 s. The clotting time with FVIII deficient plasma (Table 4, 1.25 μM, 2.2 nM FIXa, duplicate 1) turned out to be 101.1 s; in the experiment with FVIII deficient plasma (Table 4, 1.25 μM, 2.2 nM FIXa, duplicate 2), 105.3 s; in the experiment with FVIII deficient plasma (Table 4, 1.25 μM, w/o FIXa, duplicate 1) it was 107.2 s; in the experiment on FVIII deficient plasma (Table 4, 1.25 μM, w/o FIXa, duplicate 2) it was 107.1 s; in the experiment with FVIII deficient plasma (Table 4, 2.5 μM, 2.2 nM FIXa, duplicate 1) it was 105 s; with FVIII deficient plasma (Table 4, 2.5 μM, 2.2 nM FIXa, duplicate 2), 104.2 s. The clotting time with FVIII deficient plasma (Table 4, 2.5 μM, w/o FIXa, duplicate 1) turned out to be 111.9 s; in the experiment on FVIII deficient plasma (Table 4, 2.5 μM, w/o FIXa, duplicate 2), 111.9 s; with FVIII deficient plasma (Table 4, 5 μM, 2.2 nM FIXa, duplicate 1), 108.5 s; in the experiment on FVIII deficient plasma (Table 4, 5 μM, 2.2 nM FIXa, duplicate 2), 108.2 s; in the experiment with FVIII deficient plasma (Table 4, 5 μM, w/o FIXa, duplicate 1), 113.1 s; in the experiment on FVIII deficient plasma (Table 4, 5 μM, w/o FIXa, duplicate 2), 112.4 s. In addition, the clotting time in the experiment with FVIII deficient plasma (Table 4, 7.5 μM, 2.2 nM FIXa, duplicate 1) was found to be 107.6 s; in the experiment on FVIII deficient plasma (Table 4, 7.5 μM, 2.2 nM FIXa, duplicate 2), 106.6 s; with FVIII deficient plasma (Table 4, 7.5 μM, w/o FIXa, duplicate 1), 114.6 s; in the experiment on FVIII deficient plasma (Table 4, 7.5 μM, w/o FIXa, duplicate 2), 113.6 s; in the experiment on FVIII deficient plasma (Table 4, 10 μM, 2.2 nM FIXa, duplicate 1), 107.2 s; in the experiment on FVIII deficient plasma (Table 4, 10 μM, 2.2 nM FIXa, duplicate 2), 107.8 s. The clotting time came out at 115.8 s in the experiment on FVIII deficient plasma (Table 4, 10 μM, w/o FIXa, duplicate 1); 115.3 s in the experiment on FVIII deficient plasma (Table 4, 10 μM, w/o FIXa, duplicate 2); 108.1 s in the experiment on FVIII deficient plasma (Table 4, 12.5 μM, 2.2 nM FIXa, duplicate 1); 107.8 s with FVIII deficient plasma (Table 4, 12.5 μM, 2.2 nM FIXa, duplicate 2); 117.2 s with FVIII deficient plasma (Table 4, 12.5 μM, w/o FIXa, duplicate 1); 118 s in the experiment on FVIII deficient plasma (Table 4, 12.5 μM, w/o FIXa, duplicate 2). For the same molecule, the clotting time in the experiment with FVIII deficient plasma (Table 4, 15 μM, 2.2 nM FIXa, duplicate 1) turned out to be 112.7 s; with FVIII deficient plasma (Table 4, 15 μM, 2.2 nM FIXa, duplicate 2), 112.4 s; with FVIII deficient plasma (Table 4, 15 μM, w/o FIXa, duplicate 1), 121.9 s; in the experiment with FVIII deficient plasma (Table 4, 15 μM, w/o FIXa, duplicate 2), 121.3 s.

B1: 198/A1 Fab fragment: Fab fragment of antibody 198/A1 made with papain, purified on protein L (antibody, V domains shown)
VH: EVQLQESGGGLVKPGGSLKLSCAASGFIFSSYTMSWVRQTPEKRLEWVATISSGGSSTYYPDSVKGRFTISRDNAKNTLYLQMSSLKSEDTAMYHCTREGGGYYVNWYFDVWGAGTTLTVSS
VL: DIELTQSPASLAVSLGQRATISCRASESVDSYGKSFMHWYQQKPGQPPKLLIYRASNLESGIPARFSGSGSRTDFTLTINPVEADDVATYYCQQSNEDPLTFGAGTRLEIKR
As to B1, in the experiment with human FIXa (2.3 nM human FIXa), the “chromogenic FVIII-like activity” value was “still gives rise to FIX dependent FXa generation” and the “chromogenic activity compared to intact antibody” value is “somewhat less activity”.

B2: 198/B1: anti-FIX/FIXa monoclonal IgG, ECACC No. 99090925; 198/AB2 is an identical subclone (protein)
scFv: EVQLQESGGGLVKPGGSLKLSCAASGFTFSSYTMSWVRQTPEKRLEWVATISSGGSSTYYPDSVKGRFTISRDNAKNTLYLQMSSLRSEDTAMYYCTREGGGFTVNWYFDVWGAGTLVTVSAGGGGSGGRASGGGGSENVLTQSPASLAVSLGQRATISCRASESVDSYGYNFMHWYQQIPGQPPKLLIYRASNLESGIPARFSGSGSRTDFTLTINPVEADDVATYYCQQSNEDPLTFGTGTRLEIKR
modifications: scFv derived from IgG; Description of Artificial Sequence:scFv from hybridoma cell line 198/AB2 (subclone of 198/B1)
notes: anti-FIX/FIXa monoclonal IgG, ECACC No. 99090925; 198/AB2 is an identical subclone
Take B2: in the experiment with FVIII deficient plasma (one-stage clotting assay in the presence of FIXa), the procoagulant activity entry is on record as “show procoagulant activity”.

B3: MycHis-198AB2#102: 198/B1 (subclone AB2) scFv fragment with c-myc-tag and His6-tag (protein)
scFv: B2 scFv
modifications: left off: small tags and cut ends
notes: 198/B1 (subclone AB2) scFv fragment with c-myc-tag and His6-tag
For the molecule B3, the “chromogenic FVIII-like activity” value with human FIXa (2.3 nM human FIXa) is “gave rise to a substantial FXa generation”.

B4: 8860-M/H#4c: unrelated scFv of #8860 with c-myc-tag and His6-tag, negative control (protein)
scFv: EVQLQQSGPELVKPGASVKISCKASGYAFSSSWMNWVKQRPGQGLEWIGRIYPGNGDTNYNGKFKGKATLTADKSSSTAYMQLSSLTSVDSAVYFCADGNVYYYAMDYWGQGTSVTVSSGGGGSGGRASGGGGSQIVLTQSPASLAVSLGQRATISCRASKSVSTSGYSYMHWYQQKPGQPPKLLIYLASNLESGVPARFSGSGSGTDFTLNIHPVEEEDAATYYCQHSRELPRTFGGGTKLEIKRAAAEQKLISEEDLNGAAHHHHHH
In the case of B4, the “chromogenic FVIII-like activity” value with human FIXa (2.3 nM human FIXa) was “did not”.
